Legend:
[1] = target: T1, cytoplasmic domain of the human VEGF receptor (VEGFR-2) (Homo sapiens, UniProt P35968); assay: KDR Assay; type: biochemical; conditions: His-VEGFR-2; 3.6 μM ATP
T1 construct: The cytoplasmic domain of the human VEGF receptor (VEGFR-2) was expressed as a Histidine-tagged fusion protein; Histidine tag
In short: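 IC50 taken from blank-corrected OD492 curves of an anti-phosphotyrosine peroxidase ELISA. Reaction: 10 min, 25 °C, 3.6 μM ATP, 50 mM Hepes pH 7.4 with 20 mM MgCl2, 0.1 mM MnCl2 and 5% DMSO, on poly-Glu-Tyr-coated wells, started with insect-cell-expressed His-VEGFR-2 cytoplasmic domain.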

[2] = tested on: VEGF induced increases in intracellular calcium levels in HUVEC (human umbilical vein endothelial cells); assay: VEGF Stimulated Ca++ Signal in vitro (FLIPR); type: cell-based; conditions: VEGF 5 ng/mL; for IC50: 0.01 to 10.0 μM
In short: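 IC50 values derive from % inhibition of the VEGF (5 ng/mL) calcium response, taken as max-min fluorescence at 516 nm in Fluo-4-loaded HUVEC. Compounds (0.1% DMSO final) were added 30 min before stimulation, at 10 μM or across 0.01–10.0 μM.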

T1 sequence (P35968 786-1356): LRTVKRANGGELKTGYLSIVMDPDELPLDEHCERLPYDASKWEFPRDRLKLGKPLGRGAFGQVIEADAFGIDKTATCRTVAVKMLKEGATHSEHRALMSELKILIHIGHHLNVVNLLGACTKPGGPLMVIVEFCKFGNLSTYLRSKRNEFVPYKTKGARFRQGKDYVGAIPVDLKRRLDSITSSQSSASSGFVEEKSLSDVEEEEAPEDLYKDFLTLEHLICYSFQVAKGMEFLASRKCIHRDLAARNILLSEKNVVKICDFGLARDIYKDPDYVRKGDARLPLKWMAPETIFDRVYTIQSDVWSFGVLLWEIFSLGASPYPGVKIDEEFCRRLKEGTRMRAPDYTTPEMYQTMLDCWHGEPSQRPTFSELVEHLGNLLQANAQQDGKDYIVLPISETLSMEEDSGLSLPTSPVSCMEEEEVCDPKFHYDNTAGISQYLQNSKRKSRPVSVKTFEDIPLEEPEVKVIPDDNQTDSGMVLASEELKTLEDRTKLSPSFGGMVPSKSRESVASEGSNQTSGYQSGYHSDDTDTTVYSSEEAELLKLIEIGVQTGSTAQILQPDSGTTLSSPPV

Row | Compound | IC50 [1] [nM] | inhibition at 10 µM ([2]; Homo sapiens) [%] | IC50 ([2]; Homo sapiens) [nM] | IC50 [2] [nM]
1 | Cc1cccc2c1C(=CNc1cccc(S(=O)(=O)NCCCO)c1)C(=O)N2 [Example 194, N-(3-Hydroxy-propyl)-3-[(4-methyl-2-oxo-1,2-dihydro-indol-3-ylidenemethyl)-amino]-benzenesulfonamide] | 660 | 96.9 | 2670 | –
2 | O=C1Nc2ccccc2C1=CNc1ccc(N2CCOCC2)c(C(=O)O)c1 [Example 195, 2-Morpholin-4-yl-5-[(2-oxo-1,2-dihydro-indol-3-ylidenemethyl)-amino]-benzoic acid] | 960 | 91.1 | 4670 | –
3 | Cc1cccc2c1C(=CNc1ccc(C(=S)N3CCOCC3)cc1)C(=O)N2 [Example 196, 4-Methyl-3-{[4-(1-morpholin-4-yl-methanethiol)-phenylamino]-methylene}-1,3-dihydro-indol-2-one] | 50 | 73.1 | ≤ 1000 | 770
4 | Cc1cccc2c1C(=CNc1ccc(S(=O)(=O)NCCO)cc1)C(=O)N2 [Example 197, N-(2-Hydroxy-ethyl)-4-[(4-methyl-2-oxo-1,2-dihydro-indol-3-ylidenemethyl)-amino]-benzenesulfonamide] | 90 | 98.1 | – | –
5 | O=C1Nc2ccccc2C1=CNc1ccc(OCCCCl)cc1 [Example 198, 3-{[4-(3-Chloro-propoxy)-phenylamino]-methylene}-1,3-dihydro-indol-2-one] | 470 | 56.3 | 7920 | –
6 | O=C1Nc2ccccc2C1=CNc1ccc(OCCCCCl)cc1 [Example 199, 3-{[4-(4-Chloro-butoxy)-phenylamino]-methylene}-1,3-dihydro-indol-2-one] | 290 | 32.4 | – | –
7 | O=C1Nc2ccccc2C1=CNc1ccc(OCCCI)cc1 [Example 200, 3-{[4-(3-Iodo-propoxy)-phenylamino]-methylene}-1,3-dihydro-indol-2-one] | 740 | 75.2 | 3480 | –
8 | Cc1cccc2c1C(=CNc1cccc(N)c1)C(=O)N2 [Example 210, 3-[(3-Amino-phenylamino)-methylene]-4-methyl-1,3-dihydro-indol-2-one] | 170 | 97.4 | – | –
9 | Cc1ccc(NC=C2C(=O)Nc3ccccc32)cc1N [Example 212, 3-[(3-Amino-4-methyl-phenylamino)-methylene]-1,3-dihydro-indol-2-one] | 500 | 96.5 | ≤ 1000 | 820
10 | Cc1ccc(NC=C2C(=O)Nc3cccc(C)c32)cc1N [Example 213, 3-[(3-Amino-4-methyl-phenylamino)-methylene]-4-methyl-1,3-dihydro-indol-2-one] | 150 | 95 | ≤ 1000 | 650
11 | CN1CCN(CCCOc2ccc(NC=C3C(=O)Nc4ccccc43)cc2)CC1 [Example 217, 3-({4-[3-(4-Methyl-piperazin-1-yl)-propoxy]-phenylamino}-methylene)-1,3-dihydro-indol-2-one] | 280 | 97.7 | ≤ 1000 | 860
12 | COc1ccc(NC=C2C(=O)Nc3ccc(F)cc32)cc1 [Example 222, 5-Fluoro-3-[(4-methoxy-phenylamino)-methylene]-1,3-dihydro-indol-2-one] | 470 | 48.8 | – | –
13 | O=C1Nc2ccccc2C1=CNc1ccc(OCCCCN2CCSCC2)cc1 [Example 226, 3-{[4-(4-Thiomorpholin-4-yl-butoxy)-phenylamino]-methylene}-1,3-dihydro-indol-2-one] | 280 | 98 | ≤ 1000 | 700

Further lines, with some results ahead:

Row | IC50 [1] [nM] | Compound | inhibition at 10 µM ([2]; Homo sapiens) [%] | IC50 ([2]; Homo sapiens) [nM] | IC50 [2] [nM]
14 | 2270 | O=C(O)Cc1ccc(NC=C2C(=O)Nc3ccccc32)cc1 [Example 224, 3-[(4-Carboxymethylphenylamino)-methylene]-1,3-dihydro-indol-2-one] | 56.2 | 6310 | –
15 | 290 | O=C1Nc2ccccc2C1=CNc1ccc(OCCCN2CCSCC2)cc1 [Example 225, 3-{[4-(3-Thiomorpholin-4-yl-propoxy)-phenylamino]-methylene}-1,3-dihydro-indol-2-one] | 95.7 | ≤ 1000 | 560
16 | 50 | Cc1cccc2c1C(=CNc1ccc(N3CCOCC3)cc1)C(=O)N2 [Example 227, 4-Methyl-3-[(4-morpholin-4-yl-phenylamino)-methylene]-1,3-dihydro-indol-2-one] | 85.9 | – | –
17 | 80 | O=C1Nc2cc(F)ccc2C1=CNc1ccc(N2CCOCC2)cc1 [Example 228, 6-Fluoro-3-[(4-morpholin-4-yl-phenylamino)-methylene]-1,3-dihydro-indol-2-one] | 97.2 | – | –
18 | 80 | CN1CCN(c2ccc(NC=C3C(=O)Nc4cc(F)ccc43)cc2)CC1 [Example 230, 6-Fluoro-3-{[4-(4-methyl-piperazin-1-yl)-phenylamino]-methylene}-1,3-dihydro-indol-2-one] | 96.4 | – | –
19 | 160 | CCN(CC)CCCOc1ccc(NC=C2C(=O)Nc3ccc(Cl)cc32)cc1 [Example 232, 5-Chloro-3-{[4-(3-diethylamino-propoxy)-phenylamino]-methylene}-1,3-dihydro-indol-2-one] | 97.1 | ≤ 1000 | 860
20 | 190 | CCN(CC)CCCOc1ccc(NC=C2C(=O)Nc3ccc(F)cc32)cc1 [Example 233, 3-{[4-(3-Diethylamino-propoxy)-phenylamino]-methylene}-5-fluoro-1,3-dihydro-indol-2-one] | 96.9 | – | –
21 | 970 | O=C1Nc2ccc([N+](=O)[O-])cc2C1=CNc1ccc(N2CCOCC2)cc1 [Example 236, 3-[(4-Morpholin-4-yl-phenylamino)-methylene]-5-nitro-1,3-dihydro-indol-2-one] | 7.2 | – | –
22 | 710 | N#Cc1ccc2c(c1)C(=CNc1ccc(N3CCOCC3)cc1)C(=O)N2 [Example 237, 3-[(4-Morpholin-4-yl-phenylamino)-methylene]-2-oxo-2 ,3-dihydro-1 h-indole-5-carbonitrile] | 36.4 | – | –
23 | 230 | O=C1Nc2ccc(F)cc2C1=CNc1ccc(OCCCN2CCCCC2)cc1 [Example 240, 5-Fluoro-3-{[4-(3-piperidin-1-yl-propoxy)-phenylamino]-methylene}-1,3-dihydro-indol-2-one] | 98.3 | – | –
24 | 130 | O=C1Nc2ccc(Cl)cc2C1=CNc1ccc(OCCCN2CCCCC2)cc1 [Example 241, 5-Chloro-3-{[4-(3-piperidin-1-yl-propoxy)-phenylamino]-methylene}-1,3-dihydro-indol-2-one] | 95.8 | 1010 | –
25 | 70 | Cc1cccc2c1C(=CNc1ccc(NCCN3CCOCC3)cc1)C(=O)N2 [Example 242, 4-Methyl-3-{[4-(2-morpholin-4-yl-ethylamino)-phenylamino]-methylene}-1,3-dihydro-indol-2-one] | 95.8 | – | –
26 | 190 | O=C1Nc2ccc(F)cc2C1=CNc1ccc(NCCN2CCOCC2)cc1 [Example 244, 5-Fluoro-3-{[4-(2-morpholin-4-yl-ethylamino)-phenylamino]-methylene}-1,3-dihydro-indol-2-one] | 96 | – | –

— patent US20030225152A1, “3-(Arylamino)methylene-1, 3-dihydro-2h-indol-2-ones as kinase inhibitors” (priority 2001, published 2003)
